Measurements reported in PubChem BioAssay AID1963425 (Molecular Pharmacology Branch, DTP, NCI, 2024).
Values joined by “and” are separate entries in the source; they are usually repeats but may differ in a detail not shown here. Equal entries are not always repeated.

Tested on: 323965-272-R-J2-PDC complex spheroid growth, % test/control
Assay: Anticancer human tumor 323965-272-R-J2-PDC patient-derived pancreatic carcinoma cell line growth inhibition [Asc]
Conditions: for viability, T/C: stronger effect = lower value
Method in brief: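 Concentration series start at each agent's clinical Cmax, or at 10 microM when none is established, and drop in half-log steps; agents are applied alone or together to complex spheroids built with HUVEC and hMSC.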
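Also: compound exposure lasted 7 days starting three days after spheroid seeding.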
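For viability, T/C in this document: 100% = DMSO vehicle control wells with viability set relative to vehicle.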

Structure (SMILES): CCN1CCN(Cc2ccc(Nc3ncc(F)c(-c4cc(F)c5nc(C)n(C(C)C)c5c4)n3)nc2)CC1 + CNC(C)C(=O)NC1CN(S(=O)(=O)c2cccc(S(=O)(=O)N3CCC4CCC(C(=O)NC(c5ccccc5)c5ccccc5)N4C(=O)C(NC(=O)C(C)NC)C3)c2)CCC2CCC(C(=O)NC(c3ccccc3)c3ccccc3)N2C1=O
- IC50 (curve of first compound, second compound 0.00316 µM): > 1000 nM
- IC50 (curve of first compound, second compound 0.01 µM): > 1000 nM
- IC50 (curve of first compound, second compound 0.0316 µM): > 1000 nM
- IC50 (curve of first compound, second compound 0.1 µM): > 1000 nM
- IC50 (curve of first compound, second compound 0.316 µM): > 1000 nM
- IC50 (curve of first compound, second compound 1 µM): > 1000 nM
- viability, T/C (second compound 0.00316 µM, first compound 0.00316 µM): 108%
- viability, T/C (second compound 0.00316 µM, first compound 0.01 µM): 88.7%
- viability, T/C (second compound 0.00316 µM, first compound 0.0316 µM): 96.8%
- viability, T/C (second compound 0.00316 µM, first compound 0.1 µM): 83.6%
- viability, T/C (second compound 0.00316 µM, first compound 0.316 µM): 81.5%
- viability, T/C (second compound 0.00316 µM, first compound 1 µM): 77.2%
- viability, T/C (second compound 0.01 µM, first compound 0.00316 µM): 98.1%
- viability, T/C (second compound 0.01 µM, first compound 0.01 µM): 95%
- viability, T/C (second compound 0.01 µM, first compound 0.0316 µM): 97.5%
- viability, T/C (second compound 0.01 µM, first compound 0.1 µM): 70%
- viability, T/C (second compound 0.01 µM, first compound 0.316 µM): 85.6%
- viability, T/C (second compound 0.01 µM, first compound 1 µM): 79%
- viability, T/C (second compound 0.0316 µM, first compound 0.00316 µM): 101%
- viability, T/C (second compound 0.0316 µM, first compound 0.01 µM): 95.3%
- viability, T/C (second compound 0.0316 µM, first compound 0.0316 µM): 87.2%
- viability, T/C (second compound 0.0316 µM, first compound 0.1 µM): 76.1%
- viability, T/C (second compound 0.0316 µM, first compound 0.316 µM): 75%
- viability, T/C (second compound 0.0316 µM, first compound 1 µM): 72.4%
- viability, T/C (second compound 0.1 µM, first compound 0.00316 µM): 104%
- viability, T/C (second compound 0.1 µM, first compound 0.01 µM): 106%
- viability, T/C (second compound 0.1 µM, first compound 0.0316 µM): 96.6%
- viability, T/C (second compound 0.1 µM, first compound 0.1 µM): 76.5%
- viability, T/C (second compound 0.1 µM, first compound 0.316 µM): 78.4%
- viability, T/C (second compound 0.1 µM, first compound 1 µM): 82.5%
- viability, T/C (second compound 0.316 µM, first compound 0.00316 µM): 102%
- viability, T/C (second compound 0.316 µM, first compound 0.01 µM): 101%
- viability, T/C (second compound 0.316 µM, first compound 0.0316 µM): 95.4%
- viability, T/C (second compound 0.316 µM, first compound 0.1 µM): 69.6%
- viability, T/C (second compound 0.316 µM, first compound 0.316 µM): 70.6%
- viability, T/C (second compound 0.316 µM, first compound 1 µM): 83.6%
- viability, T/C (second compound 1 µM, first compound 0.00316 µM): 87.4%
- viability, T/C (second compound 1 µM, first compound 0.01 µM): 85.9%
- viability, T/C (second compound 1 µM, first compound 0.0316 µM): 90.6%
- viability, T/C (second compound 1 µM, first compound 0.1 µM): 67.7%
- viability, T/C (second compound 1 µM, first compound 0.316 µM): 79.7%
- viability, T/C (second compound 1 µM, first compound 1 µM): 74.2%

Structure (SMILES): CNC(C)C(=O)NC1CN(S(=O)(=O)c2cccc(S(=O)(=O)N3CCC4CCC(C(=O)NC(c5ccccc5)c5ccccc5)N4C(=O)C(NC(=O)C(C)NC)C3)c2)CCC2CCC(C(=O)NC(c3ccccc3)c3ccccc3)N2C1=O (stereo not given)
- viability, T/C (compound 0.01 µM): 109% [middle of 9 runs]
- viability, T/C (compound 0.1 µM): 106% [middle of 9 runs]
- viability, T/C (compound 0.316 µM): 100% [middle of 9 runs]
- IC50 (compound alone, run of 11/15/2022): > 1000 nM
- IC50 (curve of compound): > 1000 nM

Structure (SMILES): CCN1CCN(Cc2ccc(Nc3ncc(F)c(-c4cc(F)c5nc(C)n(C(C)C)c5c4)n3)nc2)CC1
- viability, T/C (compound 0.00316 µM): 114% and 101% and 112%
- viability, T/C (compound 0.01 µM): 109% and 98.9% and 112%
- viability, T/C (compound 0.0316 µM): 91.6% and 94.6% and 76.7%
- viability, T/C (compound 0.1 µM): 75.6% and 84.4% and 76.1%
- viability, T/C (compound 0.316 µM): 65.8% and 71.8% and 68%
- viability, T/C (compound 1 µM): 67.9% and 74.1% and 82.3%
- IC50 (curve of compound): > 1000 nM

Structure (SMILES): O=C(c1cc(Cc2n[nH]c(=O)c3ccccc23)ccc1F)N1CCN(C(=O)C2CC2)CC1
- viability, T/C (compound 0.0316 µM): 105% and 66.7% and 98.1%
- viability, T/C (compound 0.1 µM): 86.6% and 102% and 89.1%
- viability, T/C (compound 0.316 µM): 101% and 116% and 79%
- viability, T/C (compound 1 µM): 104% and 108% and 117%
- viability, T/C (compound 3.16 µM): 98.2% and 110% and 94.2%
- viability, T/C (compound 10 µM): 87.7% and 91.1% and 80.9%
- IC50 (curve of compound): > 10000 nM

Structure (SMILES): NC1CCC(NC2CC2c2ccccc2)CC1 (stereo not given)
- viability, T/C (compound 0.000316 µM): 97.5% and 97% and 94.2%
- viability, T/C (compound 0.001 µM): 105% and 97.8% and 90%
- viability, T/C (compound 0.00316 µM): 102% and 98.4% and 89.8%
- viability, T/C (compound 0.01 µM): 101% and 97.8% and 90.7%
- viability, T/C (compound 0.0316 µM): 120% and 103% and 94%
- viability, T/C (compound 0.1 µM): 110% and 90.2% and 92.5%
- IC50 (curve of compound): > 100 nM

Structure (SMILES): Cc1nc(N2CCC3(CC2)COC(C)C3N)c(CO)nc1Sc1ccnc(N)c1Cl (stereo not given) + CCN1C(C(=O)NC23CCC(C(=O)O)(CC2)CC3)C(c2cccc(Cl)c2F)C2(C(=O)Nc3cc(Cl)ccc32)C12CCCCC2
- IC50 (curve of first compound, second compound 0.00949 µM): 1560 nM
- IC50 (curve of first compound, second compound 0.03 µM): > 3000 nM
- IC50 (curve of first compound, second compound 0.0949 µM): > 3000 nM
- IC50 (curve of first compound, second compound 0.3 µM): 1700 nM
- IC50 (curve of first compound, second compound 0.949 µM): 1640 nM
- IC50 (curve of first compound, second compound 3 µM): 929 nM
- viability, T/C (second compound 0.00949 µM, first compound 0.00949 µM): 107%
- viability, T/C (second compound 0.00949 µM, first compound 0.03 µM): 89%
- viability, T/C (second compound 0.00949 µM, first compound 0.0949 µM): 85.4%
- viability, T/C (second compound 0.00949 µM, first compound 0.3 µM): 62.7%
- viability, T/C (second compound 0.00949 µM, first compound 0.949 µM): 57.3%
- viability, T/C (second compound 0.00949 µM, first compound 3 µM): 42.9%
- viability, T/C (second compound 0.03 µM, first compound 0.00949 µM): 104%
- viability, T/C (second compound 0.03 µM, first compound 0.03 µM): 91.8%
- viability, T/C (second compound 0.03 µM, first compound 0.0949 µM): 80.4%
- viability, T/C (second compound 0.03 µM, first compound 0.3 µM): 67.8%
- viability, T/C (second compound 0.03 µM, first compound 0.949 µM): 59%
- viability, T/C (second compound 0.03 µM, first compound 3 µM): 50.4%
- viability, T/C (second compound 0.0949 µM, first compound 0.00949 µM): 109%
- viability, T/C (second compound 0.0949 µM, first compound 0.03 µM): 84.9%
- viability, T/C (second compound 0.0949 µM, first compound 0.0949 µM): 86.1%
- viability, T/C (second compound 0.0949 µM, first compound 0.3 µM): 65.3%
- viability, T/C (second compound 0.0949 µM, first compound 0.949 µM): 61.7%
- viability, T/C (second compound 0.0949 µM, first compound 3 µM): 51.2%
- viability, T/C (second compound 0.3 µM, first compound 0.00949 µM): 102%
- viability, T/C (second compound 0.3 µM, first compound 0.03 µM): 86.3%
- viability, T/C (second compound 0.3 µM, first compound 0.0949 µM): 82.7%
- viability, T/C (second compound 0.3 µM, first compound 0.3 µM): 68.6%
- viability, T/C (second compound 0.3 µM, first compound 0.949 µM): 54.2%
- viability, T/C (second compound 0.3 µM, first compound 3 µM): 44.6%
- viability, T/C (second compound 0.949 µM, first compound 0.00949 µM): 105%
- viability, T/C (second compound 0.949 µM, first compound 0.03 µM): 95.8%
- viability, T/C (second compound 0.949 µM, first compound 0.0949 µM): 88.3%
- viability, T/C (second compound 0.949 µM, first compound 0.3 µM): 63.6%
- viability, T/C (second compound 0.949 µM, first compound 0.949 µM): 57.8%
- viability, T/C (second compound 0.949 µM, first compound 3 µM): 44.2%
- viability, T/C (second compound 3 µM, first compound 0.00949 µM): 91.2%
- viability, T/C (second compound 3 µM, first compound 0.03 µM): 83.3%
- viability, T/C (second compound 3 µM, first compound 0.0949 µM): 71.7%
- viability, T/C (second compound 3 µM, first compound 0.3 µM): 60%
- viability, T/C (second compound 3 µM, first compound 0.949 µM): 53.6%
- viability, T/C (second compound 3 µM, first compound 3 µM): 35.4%
